Experimental data taken from ChEMBL document CHEMBL1201862, “PubChem BioAssay data set” (2004).
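These data come from cells grown in 96-well plates and exposed to compound for 48 hours at five concentrations. GI50 is the concentration that inhibits growth by half.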 Activity calls are given as the source filed them. No stated cut-off is given here; in the data, active = GI50 up to about 1.1 µM and inactive = higher.

Legend:
Assay in all cases: NCI tumour cell line growth inhibition, 48 h
[1] = tested on: UACC-62
[2] = tested on: HOP-62
[3] = tested on: A498
[4] = tested on: SR
[5] = tested on: NCI-H226
[6] = tested on: KM12
[7] = tested on: HCC 2998
[8] = tested on: SK-MEL-5
[9] = tested on: SK-MEL-28
[10] = tested on: LOX IMVI
[11] = tested on: IGROV-1
[12] = tested on: OVCAR-3
[13] = tested on: SF-295
[14] = tested on: TK-10
[15] = tested on: HL-60
[16] = tested on: SF-268
[17] = tested on: HOP-92
[18] = tested on: 786-0
[19] = tested on: RXF 393
[20] = tested on: OVCAR-4

SMILES	GI50 [1]	GI50 [2]	GI50 [3]	GI50 [4]	GI50 [5]	GI50 [6]	GI50 [7]	GI50 [8]	GI50 [9]	GI50 [10]	GI50 [11]	GI50 [12]	GI50 [13]	GI50 [14]	GI50 [15]	GI50 [16]	GI50 [17]	GI50 [18]	GI50 [19]	GI50 [20]
C=CCN1C(=O)/C(=C/c2ccc(OC)cc2)NC1=S	97.7 µM (inactive)	> 100 µM (inactive)	60.4 µM (inactive)	29.3 µM (inactive)	37.9 µM (inactive)	97.7 µM (inactive)	> 100 µM (inactive)	30.5 µM (inactive)	> 100 µM (inactive)	56.1 µM (inactive)	> 100 µM (inactive)	> 100 µM (inactive)	54.2 µM (inactive)	> 100 µM (inactive)	0.0355 µM (active)	> 100 µM (inactive)	14.5 µM (inactive)	> 100 µM (inactive)	37.2 µM (inactive)	54.5 µM (inactive)
O=[N+]([O-])C(/C=C(\Cl)[N+](=O)[O-])=C1Nc2ccccc2N1	33.4 µM (inactive)	> 100 µM (inactive)	24.8 µM (inactive)	29.6 µM (inactive)	43.3 µM (inactive)	> 100 µM (inactive)	> 100 µM (inactive)	70.8 µM (inactive)	42.3 µM (inactive)	34.8 µM (inactive)	64.7 µM (inactive)	90.2 µM (inactive)	35.4 µM (inactive)	> 100 µM (inactive)	45.8 µM (inactive)	57.1 µM (inactive)	18.3 µM (inactive)	52.4 µM (inactive)	38.1 µM (inactive)	> 100 µM (inactive)
CSCCC(N)P(C)(=O)O (stereo unspecified)	> 100 µM (inactive)	> 100 µM (inactive)	> 100 µM (inactive)	> 100 µM (inactive)	> 100 µM (inactive)	> 100 µM (inactive)	> 100 µM (inactive)	> 100 µM (inactive)	> 100 µM (inactive)	> 100 µM (inactive)	> 100 µM (inactive)	> 100 µM (inactive)	> 100 µM (inactive)	> 100 µM (inactive)	> 100 µM (inactive)	> 100 µM (inactive)	> 100 µM (inactive)	> 100 µM (inactive)	> 100 µM (inactive)	> 100 µM (inactive)
O=CN1CCC23CC(O)CCC2C1Cc1cc(Oc2nnnn2-c2ccccc2)cc(O)c13 (stereo unspecified)	65.2 µM (inactive)	> 100 µM (inactive)	68.4 µM (inactive)	55 µM (inactive)	> 100 µM (inactive)	57.9 µM (inactive)	> 100 µM (inactive)	47.2 µM (inactive)	> 100 µM (inactive)	57.3 µM (inactive)	37.8 µM (inactive)	> 100 µM (inactive)	> 100 µM (inactive)	> 100 µM (inactive)	52.1 µM (inactive)	> 100 µM (inactive)	44.7 µM (inactive)	> 100 µM (inactive)	> 100 µM (inactive)	86.1 µM (inactive)
CN(O)C(=O)CCCC(=O)NCC(C)(C)CNC(=O)CCCC(=O)N(C)O	> 100 µM (inactive)	> 100 µM (inactive)	> 100 µM (inactive)	> 100 µM (inactive)	> 100 µM (inactive)	> 100 µM (inactive)	> 100 µM (inactive)	> 100 µM (inactive)		> 100 µM (inactive)	> 100 µM (inactive)	> 100 µM (inactive)	> 100 µM (inactive)	> 100 µM (inactive)	> 100 µM (inactive)	> 100 µM (inactive)	> 100 µM (inactive)		> 100 µM (inactive)	> 100 µM (inactive)
COC(=O)C(=O)C(C(C)=O)C(=O)C(=O)Nc1ccc(C)cc1C (stereo unspecified)	> 100 µM (inactive)	> 100 µM (inactive)	> 100 µM (inactive)	> 100 µM (inactive)	> 100 µM (inactive)	> 100 µM (inactive)	> 100 µM (inactive)	> 100 µM (inactive)	> 100 µM (inactive)	> 100 µM (inactive)	> 100 µM (inactive)		> 100 µM (inactive)	> 100 µM (inactive)	> 100 µM (inactive)	> 100 µM (inactive)	> 100 µM (inactive)		> 100 µM (inactive)	> 100 µM (inactive)
CC[C@@H]1C[C@@H]2CN3CCc4c([nH]c5ccc(OC)cc45)C(COC(=O)c4ccc(OC)c(OC)c4)(C2)C13	13.7 µM (inactive)	22.9 µM (inactive)	21 µM (inactive)	13.6 µM (inactive)	10.4 µM (inactive)	23.8 µM (inactive)	20.3 µM (inactive)		43.3 µM (inactive)	12.7 µM (inactive)	20.2 µM (inactive)	16.1 µM (inactive)	19.5 µM (inactive)	32.2 µM (inactive)	14.5 µM (inactive)	33 µM (inactive)	10 µM (inactive)	25.2 µM (inactive)	14.2 µM (inactive)	26.4 µM (inactive)
C=CCn1c(=O)ccn(COCCO)c1=O		> 100 µM (inactive)	> 100 µM (inactive)	> 100 µM (inactive)	> 100 µM (inactive)	> 100 µM (inactive)	> 100 µM (inactive)	> 100 µM (inactive)	> 100 µM (inactive)	> 100 µM (inactive)	> 100 µM (inactive)	> 100 µM (inactive)		> 100 µM (inactive)	> 100 µM (inactive)	> 100 µM (inactive)	> 100 µM (inactive)		> 100 µM (inactive)	> 100 µM (inactive)
O=P(CCOc1ccccc1OCCP(=O)(c1ccccc1)c1ccc2c(c1)OCCOCCOCCOCCO2)(c1ccccc1)c1ccc2c(c1)OCCOCCOCCOCCO2 (stereo unspecified)	> 100 µM (inactive)	> 100 µM (inactive)	> 100 µM (inactive)	> 100 µM (inactive)	> 100 µM (inactive)		> 100 µM (inactive)	> 100 µM (inactive)	> 100 µM (inactive)	> 100 µM (inactive)	> 100 µM (inactive)	> 100 µM (inactive)	> 100 µM (inactive)	> 100 µM (inactive)	> 100 µM (inactive)	> 100 µM (inactive)	> 100 µM (inactive)	> 100 µM (inactive)	> 100 µM (inactive)	> 100 µM (inactive)
